Columns and labels:
[1] = system: SH3, SH2C and SH2N domains of the p85 subunit of PI3K; format: binding
p85 subunit of PI3K = format: binding, human
PI3K/Akt = format: cell-based, human

NS1: Wild-type nonstructural protein 1 of influenza A H1N1 Puerto Rico/8/34 (SEQ ID NO:2)
interaction of NS1 alone with SH2C domain of p85 [1]: interacted | interaction of NS1 alone with SH3 domain of p85 [1]: interacted | interaction of NS1 with SH2C domain of p85 [1]: precipitated NS1 | interaction of NS1 with SH3 domain of p85 [1]: precipitated NS1 | precipitation of NS1 by p85 antibody (p85 subunit of PI3K): did precipitate NS1 protein | Akt phosphorylation in NS1 expressing cells compared with vector (PI3K/Akt): greater degree of Akt phosphorylation

From patent publication US7507411B2, “Attenuated influenza NS1 variants” (University of Saskatchewan, priority 2006, dated 2009)
